The results in this text go back to patent US8349827B2, “Substituted dipyrido-pyrimido-diazepine and benzo-pyrido-pyrimido compounds” (ArQule, Inc., priority 2009, dated 2013).

In general, inhibition refers to the change of the read-out against control, counted positive when it falls.

One experiment concerns PC-3. The experiment can be described thus: MTS assay, PC-3 cells. Type of experiment: cell-based. Particulars: Homo sapiens, 72 hours. On the procedure: Cells were maintained at 37° C., 5% CO2 in DMEM media supplemented with 1% fetal bovine serum, penicillin/streptomycin and fungizone (Invitrogen). Cells were seeded into 96-well tissue culture plates at 3000 per well and cultured at 37° C. for 18 hours. Test compounds were dissolved and diluted to 300× in DMSO then diluted 1:40 in DMEM. Cells were incubated with test compounds for 72 hours followed by incubation with tetrazolium compound (3-(4,5-dimethylthiazol-2-yl)-5-(3-carboxymethoxyphenyl)-2-(4-sulfophenyl)-2H-tetrazolium, inner salt; MTS) and the electron coupling reagent, phenazine methosulfate (PMS) for 4 hours. […] The ability of compounds to inhibit cell growth in this assay is correlated with the reduction of dehydrogenase enzyme activity found in metabolically active cells. The measurement of the absorbance of the formazan was assessed using an ENVISION™ (Perkin Elmer) microplate reader at 492 nm. The calculated IC50 value is the concentration of the test compound that causes a 50% decrease in the absorbance.

A further experiment deals with KATO III. The experiment can be described thus: MTS assay, KATO III cells. Type of experiment: cell-based. The settings on record: Homo sapiens, 72 hours. In short, it runs like this:
(§1)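 First, seed 3000 cells per well in low-serum (1% FBS) DMEM and culture 18 h. Next, add compounds prepared at 300× in DMSO and diluted 1:40 in DMEM; incubate 72 h. Finally, add MTS/PMS for 4 h and measure absorbance at 492 nm.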

The test system of another experiment is NCI-H1299. The experiment can be described thus: MTS assay, NCI-H1299 cells. Type of experiment: cell-based. Particulars: Homo sapiens, 72 hours. A digest of the protocol: as §1
The subject of the next experiment is PACA-2. As to the kind of experiment: MTS assay, PACA-2 cells. Type of experiment: cell-based. Particulars: 72 hours. In short, it runs like this: as §1
On the technique in general: Formazan colour is commonly taken as a measure of viable cells.

Another experiment addresses ABL (Homo sapiens, UniProt P00519). The experiment can be described thus: ABL Kinase Activity Assay (Elisa), ABL. Particulars: ATP 100 μM, read-out: Abl Enzymetic assay (Elisa) % inhibition. Type of experiment: biochemical. In short, it runs like this: (§2)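 Recombinant ABL or ABL T315I (0.089 nM final) preincubated 20 min with compound, then reacted 1 h at room temperature with 100 μM ATP and 128 nM biotinylated AblTide in Tris pH 7.0/MgCl2 buffer. Phosphopeptide captured on streptavidin and detected by anti-phosphotyrosine ELISA with alkaline phosphatase secondary and Attophos fluorescence.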

The target in another experiment is ABL T315I (Homo sapiens, UniProt P00519, T315I). The experiment can be described thus: ABL Kinase Activity Assay (Elisa), ABL T315I. Type of experiment: biochemical. Particulars: ATP 100 μM, read-out: Abl(T315I) Enzymetic assay (Elisa) % inhibition. In short, it runs like this:
as §2

Another experiment has as its system MDA-MB-231. As to the kind of experiment: MTS assay, MDA-MB-231 cells. Type of experiment: cell-based. Particulars: Homo sapiens, 72 hours. In short, it runs like this: as §1
Another experiment relates to DLD-1. The experiment can be described thus: MTS assay, DLD-1 cells. Type of experiment: cell-based. Particulars: Homo sapiens, 72 hours. A digest of the protocol:
as §1

SMILES strings stand for the structures. Bounds are passed on as bounds.

Turning to `COc1ccccc1CNc1ncc2c(n1)-c1cccnc1Nc1cnccc1-2` [Example 22, N-(2-methoxybenzyl)-9H-dipyrido[2,3-b:4′,3′-f]pyrimido[4,5-d]azepin-2-amine], the inhibition at 10 µM is 50 to 79% in the experiment with PC-3; below 50% with KATO III; 50 to 79% with NCI-H1299; below 50% in the experiment on PACA-2; below 50% on ABL; below 50% at ABL T315I. The inhibition at 10 µM is 80 to 100% in the experiment with MDA-MB-231 and 50 to 79% with DLD-1.

In the case of `CCCN1CCC(Nc2ncc3c(n2)-c2cccnc2Nc2cnccc2-3)CC1` [Example 23, N-(1-propylpiperidin-4-yl)-9H-dipyrido[2,3-b:4′,3′-f]pyrimido[4,5-d]azepin-2-amine], the inhibition at 10 µM in the experiment with PC-3 is 80 to 100%; in the experiment on KATO III, 80 to 100%; in the experiment on NCI-H1299, 80 to 100%; with PACA-2 it was 80 to 100%; on ABL, 50 to 79%; at ABL T315I it was below 50%. For the same compound, the inhibition at 10 µM in the experiment on MDA-MB-231 and with DLD-1 was 80 to 100% each time.

Consider `COc1cccc(CCNc2ncc3c(n2)-c2cccnc2Nc2cnccc2-3)c1` [Example 24, N-[2-(3-methoxyphenyl)ethyl]-9H-dipyrido[2,3-b:4′,3′-f]pyrimido[4,5-d]azepin-2-amine], for which the inhibition at 10 µM in the experiment on PC-3 was below 50%; with KATO III, 50 to 79%; with NCI-H1299, below 50%; in the experiment with PACA-2, below 50%; at ABL it was 80 to 100%; at ABL T315I it was 80 to 100%. Also, the inhibition at 10 µM in the experiment with MDA-MB-231 and with DLD-1 was below 50% in each case.

In the case of `Fc1cccc(CCNc2ncc3c(n2)-c2cccnc2Nc2cnccc2-3)c1` [Example 25, N-[2-(3-fluorophenyl)ethyl]-9H-dipyrido[2,3-b:4′,3′-f]pyrimido[4,5-d]azepin-2-amine], the inhibition at 10 µM was in the range of 80 to 100% in the experiment on PC-3; 80 to 100% with KATO III; 80 to 100% in the experiment on NCI-H1299; 80 to 100% in the experiment on PACA-2; 50 to 79% at ABL; 80 to 100% at ABL T315I. Besides, the inhibition at 10 µM in the experiment on MDA-MB-231 and in the experiment on DLD-1 was 80 to 100% throughout.

With `c1ccc(OCCNc2ncc3c(n2)-c2cccnc2Nc2cnccc2-3)cc1` [Example 26, N-(2-phenoxyethyl)-9H-dipyrido[2,3-b:4′,3′-f]pyrimido[4,5-d]azepin-2-amine], the inhibition at 10 µM in the experiment with PC-3 is below 50%; with KATO III, 50 to 79%; in the experiment on NCI-H1299, below 50%; with PACA-2, below 50%; on ABL it was 80 to 100%; on ABL T315I it was 80 to 100%. In addition, the inhibition at 10 µM in the experiment on MDA-MB-231 and in the experiment with DLD-1 was below 50% each time.

Regarding `O[C@H]1CC[C@H](Nc2ncc3c(n2)-c2cccnc2Nc2cnccc2-3)CC1` [Example 27, trans-4-(9H-dipyrido[2,3-b:4′,3′-f]pyrimido[4,5-d]azepin-2-ylamino)cyclohexanol], the inhibition at 10 µM in the experiment with PC-3 is 50 to 79%; with KATO III, 80 to 100%; with NCI-H1299 it was below 50%; in the experiment with PACA-2 it was below 50%; on ABL, 80 to 100%; on ABL T315I, 80 to 100%. The inhibition at 10 µM with MDA-MB-231 is 50 to 79%; in the experiment with DLD-1, below 50%.

Turning to `Fc1ccc(CNc2ncc3c(n2)-c2cccnc2Nc2cnccc2-3)cc1F` [Example 33, N-(3,4-difluorobenzyl)-9H-dipyrido[2,3-b:4′,3′-f]pyrimido[4,5-d]azepin-2-amine], the inhibition at 10 µM in the experiment on PC-3, with KATO III, with NCI-H1299, in the experiment with PACA-2, on ABL and on ABL T315I was 80 to 100% throughout. Besides, the inhibition at 10 µM with MDA-MB-231 and in the experiment with DLD-1 was 80 to 100% in each case.

On to `c1ccc(-c2ccc(CNc3ncc4c(n3)-c3cccnc3Nc3cnccc3-4)cc2)cc1` [Example 34, N-(biphenyl-4-ylmethyl)-9H-dipyrido[2,3-b:4′,3′-f]pyrimido[4,5-d]azepin-2-amine], for which the inhibition at 10 µM with PC-3, in the experiment on KATO III, with NCI-H1299, in the experiment on PACA-2, at ABL and on ABL T315I was 80 to 100% throughout. The inhibition at 10 µM with MDA-MB-231 and with DLD-1 was 80 to 100% throughout.

Consider `c1cnc2c(c1)-c1nc(NC3CCCCC3)ncc1-c1ccncc1N2` [Example 35, N-cyclohexyl-9H-dipyrido[2,3-b:4′,3′-f]pyrimido[4,5-d]azepin-2-amine], for which the inhibition at 10 µM in the experiment with PC-3 was below 50%; with KATO III, 50 to 79%; in the experiment on NCI-H1299 it was 50 to 79%; with PACA-2, below 50%; at ABL, 80 to 100%; at ABL T315I, 80 to 100%. Further, the inhibition at 10 µM in the experiment with MDA-MB-231 and in the experiment on DLD-1 was below 50% throughout.

In the case of `Fc1cccc(CNc2ncc3c(n2)-c2cccnc2Nc2cnccc2-3)c1` [Example 39, N-(3-fluorobenzyl)-9H-dipyrido[2,3-b:4′,3′-f]pyrimido[4,5-d]azepin-2-amine], the inhibition at 10 µM in the experiment on PC-3, with KATO III, in the experiment on NCI-H1299, in the experiment on PACA-2, at ABL and on ABL T315I was 80 to 100% each time. The inhibition at 10 µM in the experiment with MDA-MB-231 and in the experiment on DLD-1 was 80 to 100% throughout.

With `Cc1cccc(CNc2ncc3c(n2)-c2cccnc2Nc2cnccc2-3)c1` [Example 40, N-(3-methylbenzyl)-9H-dipyrido[2,3-b:4′,3′-f]pyrimido[4,5-d]azepin-2-amine], the inhibition at 10 µM with PC-3 was in the range of 80 to 100%; with KATO III, 50 to 79%; in the experiment on NCI-H1299, 50 to 79%; in the experiment with PACA-2, 80 to 100%; on ABL, 80 to 100%; at ABL T315I it was 80 to 100%. In addition, the inhibition at 10 µM in the experiment on MDA-MB-231 and in the experiment with DLD-1 was 50 to 79% in each case.

`COc1ccc(CCNc2ncc3c(n2)-c2cccnc2Nc2cnccc2-3)cc1` [Example 42, N-[2-(4-methoxyphenyl)ethyl]-9H-dipyrido[2,3-b:4′,3′-f]pyrimido[4,5-d]azepin-2-amine]: the inhibition at 10 µM in the experiment on PC-3 is below 50%; with KATO III it was 80 to 100%; in the experiment with NCI-H1299 it was below 50%; in the experiment with PACA-2, below 50%; on ABL, 80 to 100%; on ABL T315I, 80 to 100%. The inhibition at 10 µM with MDA-MB-231 was below 50%; in the experiment on DLD-1 it was 50 to 79%.

As for `CN(C)CCCCNc1ncc2c(n1)-c1cccnc1Nc1cnccc1-2` [Example 51, N′-9H-dipyrido[2,3-b:4′,3′-f]pyrimido[4,5-d]azepin-2-yl-N,N-dimethylbutane-1,4-diamine], the inhibition at 10 µM in the experiment with PC-3 was 80 to 100%; in the experiment on KATO III, 80 to 100%; with NCI-H1299 it was below 50%; in the experiment with PACA-2 it was below 50%; on ABL, 50 to 79%; at ABL T315I it was below 50%. In addition, the inhibition at 10 µM in the experiment on MDA-MB-231 is 80 to 100%; in the experiment on DLD-1, below 50%.

For the compound `c1cnc2c(c1)-c1nc(NCC3CCNCC3)ncc1-c1ccncc1N2` [Example 60, N-(piperidin-4-ylmethyl)-9H-dipyrido[2,3-b:4′,3′-f]pyrimido[4,5-d]azepin-2-amine], the inhibition at 10 µM is 80 to 100% in the experiment with PC-3; 80 to 100% in the experiment on KATO III; 50 to 79% in the experiment with NCI-H1299; 80 to 100% with PACA-2; 50 to 79% at ABL; below 50% on ABL T315I. Besides, the figures for the inhibition at 10 µM in the experiment on MDA-MB-231 and in the experiment on DLD-1 were 80 to 100% and 50 to 79%, respectively.

Regarding `OCCc1ccc(Nc2ncc3c(n2)-c2cccnc2Nc2ccccc2-3)cc1` [Example 63, 2-[4-(9H-pyrido[2,3-b]pyrimido[4,5-d][1]benzazepin-2-ylamino)phenyl]ethanol], the inhibition at 10 µM was 50 to 79% in the experiment with PC-3; 50 to 79% in the experiment with KATO III; below 50% in the experiment with NCI-H1299; 80 to 100% in the experiment with PACA-2; below 50% on ABL; below 50% at ABL T315I. For the same compound, the inhibition at 10 µM in the experiment with MDA-MB-231 was below 50%; in the experiment with DLD-1, 50 to 79%.
